These results are taken from US9580418B2, “Bicyclic aromatic carboxamide compounds useful as Pim kinase inhibitors” (Incyte Corporation, priority 2014, dated 2017).

Experiment [1] addresses Pim-1 (Homo sapiens (Human), UniProt P11309). Description: Pim-1 kinase assay (Pim enzyme assays, Example A). The class given is biochemical. Conditions: 1 mM ATP, BAD peptide substrate; read-out: PIM1 IC50. As for the experimental part: (§1) Pim-1 and Pim-3 kinase assays-20 μL reactions were run in white 384 well polystyrene plates dotted with 0.8 μL compound/DMSO in the assay buffer (50 mM Tris, pH 7.5, 0.01% Tween-20, 5 mM mgCl2, 0.01% BSA, 5 mM DTT), containing 0.05 μM Biotin-labeled BAD peptide substrate (AnaSpec 62269), 1 mM ATP, and 2.5 pM (Pim-1, Invitrogen PV3503) or 1.25 pM (Pim-3, Millipore 14-738) enzyme for 1 h at 25° C. Reactions were stopped by addition of 10 μL STOP Buffer (150 mM Tris, pH=7.5, 150 mM NaCl, 75 mM EDTA, 0.01% Tween-20, 0.3% BSA,) supplemented with Phospho-Bad (Ser112) Antibody (Cell Signaling 9291) diluted 666-fold, and Streptavidin donor beads (PerkinElmer 6760002) along with Protein-A acceptor beads (PerkinElmer 6760137) at 15 μg/mL each. Supplementation of the STOP buffer with beads and stopping the reactions were done under reduced light. Prior to the stopping reactions STOP buffer with beads was preincubated for 1 h in the dark at room temperature. After stopping the reactions, plates were incubated for 1 h in the dark at room temperature before reading on a PHERAstar FS plate reader (BMG Labtech) under reduced light.

In experiment [2] the test system is pBAD in KMS.12.BM cells. In words: Pim pBAD signaling assay in KMS.12.BM cells (Example B). The class given is cell-based. The conditions noted are these: Homo sapiens, 2.5 h incubation, pBAD ELISA. The protocol:
KG-1A cells are purchased from ATCC (Manassas, Va.) and KMS.12.BM cells are purchased from NIBIO, JCRB cell bank (Tokyo, Japan) and maintained in the culture mediums recommended, RPMI, 10% FBS and IMDM 20% FBS (Mediatech, Manassas, Va.) respectively. To measure the pBAD inhibitory activity of the compounds, both cell lines are plated with the culture medium (1×10^6/well/100 μL for KG1A and 4×10^5 cells/well/in 100 μL for KMS12BM) into 96-well V bottom polypropylene plates (Matrix, Thermo Fisher, USA) and incubated 30 min. at 37° C. to normalize cell signaling from handling. Test compounds are added at an appropriate concentration range and further incubated for 2.5 h for KMS.12.BM cells and 4 h for KG1-A cells. Plates are centrifuged at 2000 RPM for 10 min. and supernatants aspirated. 100 μL lysis buffer with protease inhibitors (Cell Signaling Technologies, Danver, Mass., Sigma, St Louis Mo., EMD, USA) is added to the pellets, mixed well and set on ice for 30 min. Lysates are frozen overnight at −80° C. To measure the pBAD activity, a Cell Signaling ELISA kit (Cell Signaling Path Scan phosphor pBAD ELISA) is utilized. 50 μL of the lysate is tested per the ELISA protocol and the data analysis is performed by software on a SpectrMax5 plate reader (Molecular Devices, Sunnyvale, Calif.). IC50 determination is performed by fitting the curve of percent inhibition versus the log of the inhibitor concentration using the GraphPad Prism 5.0 software.

For experiment [3], the target named is Pim-2 (Homo sapiens (Human), UniProt Q9P1W9). In words: Pim-2 kinase assay (Pim enzyme assays, Example A). Format: biochemical. Conditions: 1 mM ATP, CREBtide peptide substrate; read-out: PIM2 IC50. As for the experimental part:
Pim-2 kinase assay-20 μL reactions were run in white 384 well polystyrene plates dotted with 0.8 μL compound/DMSO in the assay buffer (50 mM Tris, pH 7.5, 0.01% Tween-20, 5 mM mgCl2, 0.01% BSA, 5 mM DTT), containing 0.05 μM Fluorescein-labeled CREBtide peptide substrate (Invitrogen PV3508), 1 mM ATP, and 1 nM enzyme (Invitrogen PV3649) for 2 h at 25° C. Reactions were stopped by addition of 10 μL TR-FRET Dilution Buffer (Invitrogen PV3574) with 30 mM EDTA and 1.5 nM LanthaScreen Tb-CREB pSer133 antibody (Invitrogen PV3566). After 30 min. incubation at room temperature, plates were read on a PHERAstar FS plate reader (BMG Labtech).

For experiment [4], the target named is Pim-3 (Homo sapiens (Human), UniProt Q86V86). Description: Pim-3 kinase assay (Pim enzyme assays, Example A). Format: biochemical. The conditions noted are these: 1 mM ATP, BAD peptide substrate; read-out: PIM3 IC50. As for the experimental part:
as §1

Molecules are shown by their SMILES.

Pim-1, sequence (P11309 whole entry): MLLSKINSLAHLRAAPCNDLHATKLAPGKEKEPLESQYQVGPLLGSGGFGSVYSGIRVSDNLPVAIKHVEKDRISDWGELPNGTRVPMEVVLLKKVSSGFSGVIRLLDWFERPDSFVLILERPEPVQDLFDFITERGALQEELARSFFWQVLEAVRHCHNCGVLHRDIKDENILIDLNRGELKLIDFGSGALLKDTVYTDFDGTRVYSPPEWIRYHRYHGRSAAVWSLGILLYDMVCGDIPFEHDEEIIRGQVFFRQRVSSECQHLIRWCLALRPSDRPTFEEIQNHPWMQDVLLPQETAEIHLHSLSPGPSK
Pim-2, sequence (Q9P1W9 whole entry): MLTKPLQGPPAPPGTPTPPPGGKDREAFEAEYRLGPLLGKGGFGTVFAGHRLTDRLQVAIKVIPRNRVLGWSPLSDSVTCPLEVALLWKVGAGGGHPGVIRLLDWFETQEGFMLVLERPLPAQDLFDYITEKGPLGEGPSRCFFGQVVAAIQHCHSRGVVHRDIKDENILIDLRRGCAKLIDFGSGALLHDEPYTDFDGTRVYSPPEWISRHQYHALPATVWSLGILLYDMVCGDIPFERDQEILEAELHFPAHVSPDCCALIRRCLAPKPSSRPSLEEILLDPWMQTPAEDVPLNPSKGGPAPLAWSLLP

As for `COc1cc(F)c(-c2cnc3ccc(C(=O)Nc4cnccc4N4C[C@@H](N)[C@H](O)[C@@H](C5CC5)C4)nc3c2)c(F)c1` [Example 35, N-{4-[(3R,4R,5S)-3-Amino-5-cyclopropyl-4-hydroxypiperidin-1-yl]pyridin-3-yl}-7-(2,6-difluoro-4-methoxyphenyl)-1,5-naphthyridine-2-carboxamide], the concentration for half-maximal inhibition (IC50) (usually the concentration at which inhibition is half-maximal) in experiment [1] is no more than 0.01 µM; in experiment [2] it was no more than 0.05 µM; in experiment [3], no more than 0.1 µM; in experiment [4] it was no more than 0.01 µM.
`CCn1cc(-c2ccc3ccc(C(=O)Nc4cnccc4N4C[C@@H](N)[C@H](O)[C@@H](C)C4)nc3c2)cn1` [Example 44, N-{4-[(3R,4R,5S)-3-Amino-4-hydroxy-5-methylpiperidin-1-yl]pyridin-3-yl}-7-(1-ethyl-1H-pyrazol-4-yl)quinoline-2-carboxamide]: the half-maximal inhibitory concentration (IC50) in experiment [1] is no more than 0.01 µM; in experiment [2], no more than 0.05 µM; in experiment [3], no more than 0.1 µM; in experiment [4] it was no more than 0.01 µM.
Consider `C[C@H]1CN(c2ccncc2NC(=O)c2ccc3ccc(N4CC(C)(C)C4)cc3n2)C[C@@H](N)[C@@H]1O` [Example 32, N-{4-[(3R,4R,5S)-3-Amino-4-hydroxy-5-methylpiperidin-1-yl]pyridin-3-yl}-7-(3,3-dimethylazetidin-1-yl)quinoline-2-carboxamide], for which the IC50 in experiment [1] was no more than 0.01 µM; in experiment [3], 0.1 to 1 µM; in experiment [4], no more than 0.01 µM.
On to `CCn1cc(-c2cnc3ccc(C(=O)Nc4cnccc4N4C[C@H](C)C[C@H](N)C4)nc3c2)cn1` [Example 5, N-{4-[(3S,5R)-3-Amino-5-methylpiperidin-1-yl]pyridin-3-yl}-7-(1-ethyl-1H-pyrazol-4-yl)-1,5-naphthyridine-2-carboxamide], for which the IC50 in experiment [1] is no more than 0.01 µM; in experiment [2], no more than 0.05 µM; in experiment [3], 0.1 to 1 µM; in experiment [4], no more than 0.01 µM.
For the molecule `COc1cc(F)c(-c2cnc3ccc(C(=O)Nc4cnccc4N4C[C@H](C)C[C@H](N)C4)nc3c2)c(F)c1` [Example 4, N-{4-[(3S,5R)-3-Amino-5-methylpiperidin-1-yl]pyridin-3-yl}-7-(2,6-difluoro-4-methoxyphenyl)-1,5-naphthyridine-2-carboxamide], the IC50 in experiment [1] was no more than 0.01 µM; in experiment [2], no more than 0.05 µM; in experiment [3], no more than 0.1 µM; in experiment [4], no more than 0.01 µM.
For `C[C@@H]1C[C@H](N)CN(c2ccncc2NC(=O)c2ccc3ccc(-c4cnn(C)c4)cc3n2)C1` [Example 48, N-{4-[(3S,5R)-3-amino-5-methylpiperidin-1-yl]pyridin-3-yl}-7-(1-methyl-1H-pyrazol-4-yl)quinoline-2-carboxamide], the IC50 in experiment [1] was no more than 0.01 µM; in experiment [2], no more than 0.05 µM; in experiment [3], no more than 0.1 µM; in experiment [4], no more than 0.01 µM.
Take `COC1CCN(c2ccc3ccc(C(=O)Nc4cnccc4N4C[C@H](C)C[C@H](N)C4)nc3c2)CC1` [Example 25, N-{4-[(3S,5R)-3-Amino-5-methylpiperidin-1-yl]pyridin-3-yl}-7-(4-methoxypiperidin-1-yl)quinoline-2-carboxamide]: the IC50 in experiment [1] is no more than 0.01 µM; in experiment [2], no more than 0.05 µM; in experiment [3], no more than 0.1 µM; in experiment [4], no more than 0.01 µM.
Regarding `COc1ccc(-c2ccc3ccc(C(=O)Nc4cnccc4N4C[C@@H](N)[C@H](O)[C@@H](C)C4)nc3c2)cn1` [Example 45, N-{4-[(3R,4R,5S)-3-Amino-4-hydroxy-5-methylpiperidin-1-yl]pyridin-3-yl}-7-(6-methoxypyridin-3-yl)quinoline-2-carboxamide], the half-inhibitory concentration (IC50) in experiment [1] was no more than 0.01 µM; in experiment [2] it was no more than 0.05 µM; in experiment [3], no more than 0.1 µM; in experiment [4], no more than 0.01 µM.
Regarding `C[C@@H]1C[C@H](N)CN(c2ccncc2NC(=O)c2ccc3ncc(C4CCOCC4)cc3n2)C1` [Example 3, N-{4-[(3S,5R)-3-Amino-5-methylpiperidin-1-yl]pyridin-3-yl}-7-(tetrahydro-2H-pyran-4-yl)-1,5-naphthyridine-2-carboxamide], the IC50 is no more than 0.01 µM in experiment [1], no more than 0.05 µM in experiment [2], 0.1 to 1 µM in experiment [3] and no more than 0.01 µM in experiment [4].
As for `C[C@@H]1C[C@H](N)CN(c2ccncc2NC(=O)c2ccc3ccc(N4CCCC4)cc3n2)C1` [Example 31, N-{4-[(3S,5R)-3-Amino-5-methylpiperidin-1-yl]pyridin-3-yl}-7-pyrrolidin-1-ylquinoline-2-carboxamide], the IC50 in experiment [1] is no more than 0.01 µM; in experiment [2] it was 0.05 to 0.25 µM; in experiment [3], 0.1 to 1 µM; in experiment [4], no more than 0.01 µM.
Take `C[C@@H]1C[C@H](N)CN(c2ccncc2NC(=O)c2ccc3ccc(N4CCC(c5ccncc5)CC4)cc3n2)C1` [Example 21, N-{4-[(3S,5R)-3-Amino-5-methylpiperidin-1-yl]pyridin-3-yl}-7-(4-pyridin-4-ylpiperidin-1-yl)quinoline-2-carboxamide]: the concentration for half-maximal inhibition (IC50) is no more than 0.01 µM in experiment [1], 0.05 to 0.25 µM in experiment [2], 0.1 to 1 µM in experiment [3] and no more than 0.01 µM in experiment [4].
For `C[C@@H]1C[C@H](N)CN(c2ccncc2NC(=O)c2ccc3ccc(N4CC(C)(C)C4)cc3n2)C1` [Example 33, N-{4-[(3S,5R)-3-Amino-5-methylpiperidin-1-yl]pyridin-3-yl}-7-(3,3-dimethylazetidin-1-yl)quinoline-2-carboxamide], the values for the IC50 in experiment [1], in experiment [3] and in experiment [4] were no more than 0.01 µM, 1 to 10 µM and no more than 0.01 µM, respectively.
With `C[C@@H]1C[C@H](N)CN(c2ccncc2NC(=O)c2ccc3ccc(N4CCC(C(F)(F)F)C4)cc3n2)C1` (stereo partly drawn) [Example 29, N-{4-[(3S,5R)-3-Amino-5-methylpiperidin-1-yl]pyridin-3-yl}-7-[3-(trifluoromethyl)pyrrolidin-1-yl]quinoline-2-carboxamide], the half-maximal inhibitory concentration (IC50) was no more than 0.01 µM in experiment [1], 0.1 to 1 µM in experiment [3] and no more than 0.01 µM in experiment [4].
As to `C[C@H]1CN(c2ccncc2NC(=O)c2ccc3ncc(N4CCOCC4)cc3n2)C[C@@H](N)[C@@H]1O` [Example 8, N-{4-[(3R,4R,5S)-3-Amino-4-hydroxy-5-methylpiperidin-1-yl]pyridin-3-yl}-7-morpholin-4-yl-1,5-naphthyridine-2-carboxamide], the IC50 is no more than 0.01 µM in experiment [1], no more than 0.05 µM in experiment [2], 0.1 to 1 µM in experiment [3] and no more than 0.01 µM in experiment [4].
As for `N[C@@H]1CN(c2ccncc2NC(=O)c2ccc3ncc(N4CCC5(CCOCC5)CC4)cc3n2)C[C@H](C2CC2)[C@H]1O` [Example 40, N-{4-[(3R,4R,5S)-3-Amino-5-cyclopropyl-4-hydroxypiperidin-1-yl]pyridin-3-yl}-7-(3-oxa-9-azaspiro[5.5]undec-9-yl)-1,5-naphthyridine-2-carboxamide], the 50% inhibitory concentration (IC50) is no more than 0.01 µM in experiment [1], 0.1 to 1 µM in experiment [3] and no more than 0.01 µM in experiment [4].
`C[C@H]1CN(c2ccncc2NC(=O)c2ccc3ccc(N4CCC(C(F)(F)F)C4)cc3n2)C[C@@H](N)[C@@H]1O` (stereo partly drawn) [Example 28, N-{4-[(3R,4R,5S)-3-Amino-4-hydroxy-5-methylpiperidin-1-yl]pyridin-3-yl}-7-[3-(trifluoromethyl)pyrrolidin-1-yl]quinoline-2-carboxamide]: the figures for the IC50 in experiment [1], in experiment [3] and in experiment [4] were no more than 0.01 µM, 0.1 to 1 µM and no more than 0.01 µM, respectively.
